Results on twelve molecules are retold here after publication PMC11531485, “Examining prestructured β-actin peptides as substrates of histidine methyltransferase SETD3” (Scientific Reports, 2024).

For data set [1], the target named is human SETD3 histidine methyltransferase (human) (UniProt Q86TU7).
The target in data set [2] is T1, human SETD3 (Homo sapiens, UniProt Q86TU7).
T1 construct: His6 (N); made in house; host or cells: E. coli BL21(DE3)
T1 sequence (Q86TU7 1-594): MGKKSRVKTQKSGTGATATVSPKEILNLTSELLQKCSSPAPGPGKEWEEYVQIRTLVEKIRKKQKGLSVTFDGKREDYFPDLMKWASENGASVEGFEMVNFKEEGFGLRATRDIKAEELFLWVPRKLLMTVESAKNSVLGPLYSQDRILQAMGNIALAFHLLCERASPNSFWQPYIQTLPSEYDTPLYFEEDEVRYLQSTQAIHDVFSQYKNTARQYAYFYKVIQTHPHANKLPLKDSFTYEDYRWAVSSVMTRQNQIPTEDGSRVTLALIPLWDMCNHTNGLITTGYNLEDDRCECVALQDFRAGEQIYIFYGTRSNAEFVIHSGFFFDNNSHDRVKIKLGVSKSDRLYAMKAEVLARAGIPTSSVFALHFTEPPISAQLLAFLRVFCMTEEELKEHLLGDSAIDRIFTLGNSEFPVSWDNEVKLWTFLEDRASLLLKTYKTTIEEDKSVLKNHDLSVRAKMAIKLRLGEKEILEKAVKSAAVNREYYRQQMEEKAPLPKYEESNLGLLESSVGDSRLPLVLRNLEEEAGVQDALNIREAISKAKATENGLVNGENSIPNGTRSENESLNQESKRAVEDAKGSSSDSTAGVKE
As to the kind of experiment: MALDI-TOF MS enzymatic substrate scope assay (SETD3-catalyzed methylation of βA peptides). It counts as biochemical. The note with it: 1 µM SETD3, 10 µM βA peptide, 100 µM SAM, 25 mM Tris, 20 mM NaCl, pH 9.0, 37 °C; for SETD3-catalyzed methylation after 3 h: N = 2. On the procedure:
We examined conformationally restrained βA peptides and linear controls as substrates for the recombinantly expressed human SETD3 employing MALDI-TOF MS to detect a characteristic + 14 Da mass increase upon methylation. Enzymatic reactions were evaluated using standard conditions (1 µM SETD3, 10 µM βA, 100 µM SAM) in methylation buffer (25 mM Tris, 20 mM NaCl, pH = 9.0 at 37 °C)[21]. The enzymatic reaction was quenched with 10% TFA in MilliQ water (1:1 v/v) at 1 h and 3 h before mass spectrometric analysis (Figs . 4 and S3-S4). […] Finally, azide-alkyne Cu^I-mediated Huisgen 1,3-dipolar cycloaddition yields peptide 11 that was poorly (14%) methylated by SETD3 after 3 h under standard conditions (Figs. 4L and S4L). […] Taken together, these findings illustrate an overall preference of human SETD3 for flexible βA peptides, which facilitates βA-H73 insertion into the active site. Introduction of flexible macrocycles results in an overall reduced methylation by SETD3, while bulky or rigidifying moieties present within the macrocycles render the βA peptides non-reactive to methylation by SETD3.
Fig. 4 MALDI-TOF MS data showing SETD3-catalyzed (1 µM) methylation of βA peptides (10 µM) in the presence of SAM (100 µM) in reaction buffer (25 mM Tris, 20 mM NaCl, pH = 9.0) after 3 h at 37 °C. (A) βA, (B) 1, (C) 2, (D) 3, (E) 4, (F) 5, (G) 6, (H) 7, (I) 8, (J) 9, (K) 10, (L) 11. Control reactions in the absence of SETD3 are shown in black, whereas SETD3-catalyzed reactions are shown in red.
SETD3 substrate scope experiments towards βA peptides were performed by incubation of βA peptides (10 µM) in methylation buffer (25 mM Tris, 20 mM NaCl, pH = 9.0) in the presence of SAM (100 µM) and SETD3 (1 µM) in a final volume of 50 µL for 1 and 3 h at 37 °C while shaking at 750 rpm in an Eppendorf Thermomixer C. The reaction was quenched by addition of 10% TFA in MilliQ H2O (1:1). The reactions were aliquoted and mixed with α-cyano-4-hydroxycinnamic acid dissolved in MilliQ H2O and ACN (1:1, v/v) with 0.1% TFA. The aliquots were loaded onto a MTP 384 polished steel target for MALDI-TOF analysis using a UltrafleXtreme and conversion to methylated product was monitored.

Data set [3] addresses T1, human SETD3. Briefly: MALDI-TOF MS methylation kinetics assay (Michaelis-Menten, steady state). Type of data set: biochemical. The conditions noted are these: 200 nM SETD3, 3.125-150 µM peptide, 100 µM SAM, pH 9.0, 37 °C; for Km / kcat: 25 mM Tris, 20 mM NaCl, MALDI-TOF MS, duplicate, mean ± SE, SEM. On the procedure:
(§1) Catalytic efficiencies were explored for SETD3-catalyzed methylation of linear βA peptides 1, 6, 8 and 10 (Fig. 5; Table 1). Kinetic parameters were determined using MALDI-TOF MS assays under steady-state conditions by incubation with saturating amounts of SAM (100 µM)[23]. Addition of SETD3 (200 nM) to varying concentrations of linear βA peptides (0–150 µM) in reaction buffer initiated the reaction, upon which the mixture was incubated at 37 °C and quenched at timepoints that guarantee v0-reaction rates for SETD3-catalyzed methylation.
(§2) Fig. 5 Michaelis–Menten kinetics of linear βA peptides at varying concentrations (3.125-150 µM) by SETD3 (200 nM) in presence of saturating amounts of SAM (100 µM) in reaction buffer (25 mM Tris, 20 mM NaCl, pH = 9.0) at 37 °C.
(§3) Kinetics evaluation was carried out with a MALDI-TOF MS assay under steady state conditions. βA peptides (3.125–150 µM) and SAM (100 µM) were dissolved in methylation buffer (25 mM Tris, 20 mM NaCl, pH = 9.0), upon which the reaction was initiated by addition of SETD3. Reactions were incubated at 37 °C and shaken at 750 rpm Eppendorf Thermomixer C for 30 min, upon which the reactions were quenched by addition of 10% TFA in MilliQ water (1:1). Reactions were aliquoted and mixed with α-cyano-4-hydroxycinnamic acid dissolved in MilliQ H2O and ACN (1:1, v/v) with 0.1% TFA. The aliquots were loaded onto a MTP 384 polished steel target for MALDI-TOF analysis using a UltrafleXtreme. Methylated product was quantified by determining the combined integrals of the various ionic species of the methylated product. Kinetic parameters were subsequently determined by plotting V0 values and actin peptide concentrations and fitting them to the Michaelis–Menten equation using GraphPad Prism software. Experiments were performed in duplicate and values are reported as mean [drawing 1] standard error (SE) (Figs. S3-S4).

Data set [4] concerns the target T2, human SETD3 histidine methyltransferase (human, UniProt Q86TU7 1-594).
T2 sequence (looked up): T1 sequence (Q86TU7 1-594)

Substrate in data set [5]: CC[C@H](C)[C@H](NC(=O)CNC(=O)[C@H](Cc1c[nH]cn1)NC(=O)[C@H](CCC(=O)O)NC(=O)[C@@H](NC(=O)[C@@H]1CCCN1C(=O)[C@H](Cc1ccc(O)cc1)NC(=O)[C@H](CCCCN)NC(=O)[C@H](CC(C)C)NC(=O)[C@@H](N)[C@@H](C)O)[C@@H](C)CC)C(=O)N[C@H](C(=O)N[C@H](C(=O)N[C@@H](CC(N)=O)C(=O)N[C@@H](Cc1c[nH]c2ccccc12)C(=O)N[C@@H](CC(=O)O)C(=O)N[C@@H](CC(=O)O)C(N)=O)[C@@H](C)O)C(C)C
Briefly: MALDI-TOF MS methylation kinetics assay (Michaelis-Menten, steady state). Type of data set: biochemical, human. The conditions noted are these: other: 200 nM SETD3, 3.125-150 µM peptide, 100 µM SAM, 25 mM Tris, 20 mM NaCl, pH 9.0, 37 °C, duplicate, mean ± SE. How it is done: as §1, §2, §3

Positions of bridges follow the written chain, without caps; N, C: chain ends. Non-standard residues stand in square brackets, D forms with d. Residues, ends and D or L forms follow the SMILES beside them. No end group written: not given here. Orn = NCCC[C@H](N)C(=O)O

On to “linear βA peptide 8 (I75K) (from UniProt P60709 66-81)”, for which, in data set [1], the Km of SETD3-catalysed methylation, MALDI-TOF MS steady-state kinetics (200 nM SETD3, 100 µM SAM, pH 9.0, 37 °C) came out at 25.1 µM; the kcat of SETD3-catalysed methylation, MALDI-TOF MS steady-state kinetics (200 nM SETD3, 100 µM SAM, pH 9.0, 37 °C) is 246 min^-1; the kcat/Km of SETD3-catalysed methylation, MALDI-TOF MS steady-state kinetics (200 nM SETD3, 100 µM SAM, pH 9.0, 37 °C) came out at 9.8 µM^-1min^-1.

For the molecule `CC[C@H](C)[C@H](NC(=O)[C@@H]1CCCN1C(=O)[C@H](Cc1ccc(O)cc1)NC(=O)[C@H](CCCCN)NC(=O)[C@H](CC(C)C)NC(=O)[C@@H](N)[C@@H](C)O)C(=O)N[C@H]1CCC(=O)NCCCC[C@@H](C(=O)N[C@H](C(=O)N[C@H](C(=O)N[C@@H](CC(N)=O)C(=O)N[C@@H](Cc2c[nH]c3ccccc23)C(=O)N[C@@H](CC(=O)O)C(=O)N[C@@H](CC(=O)O)C(N)=O)[C@@H](C)O)C(C)C)NC(=O)CNC(=O)[C@H](Cc2c[nH]cn2)NC1=O` [compound 9] (H-TLKYPIEHGKVTNWDD-NH2; lactam 7-10), at human SETD3 [2], the “SETD3-catalyzed methylation after 3 h” value came to 25%.

Take “TLKYPICHGCVTNWDD (also: sidechain bridge or staple (positions not given here)) [compound 4, βA peptide stapled with hexafluorobenzene]”: at human SETD3 [2], the “SETD3-catalyzed methylation after 3 h (in words)” value is reported as “inert to methylation”.

Take “TLKYPICHGCVTNWDD (also: sidechain bridge or staple (positions not given here)) [compound 2, stapled bis-thiol alkylated βA peptide]”: the “SETD3-catalyzed methylation after 3 h” value on human SETD3 [2] is 30%.

For orientation: Km means the concentration of substrate that gives half-maximal velocity. Usually kcat stands for the number of substrate molecules converted per active site and unit of time at saturation. The term kcat/Km denotes the turnover number divided by the Michaelis constant. With “TLKYPIEHG[Orn]VTNWDD [compound 6, linear lactam control, βA-I75 substituted by Orn]”, the “SETD3-catalyzed methylation (conversion) within 1 h” value at human SETD3 [2] is recorded as “completely methylated”. Moreover, on human SETD3 [3], the Km was 45.2 ± 8.1 µM, the kcat turned out to be 3.68 ± 0.267 s⁻¹ and the kcat/Km was 81800 M⁻¹ s⁻¹.

For the molecule “TLKYPILys(N3)HGPraVTNWDD (sidechain bridge or staple) [compound 11, triazole-stapled βA peptide from azide-alkyne cycloaddition of 10]”, on human SETD3 [2], the “SETD3-catalyzed methylation after 3 h” value is reported as 14%.

On to “linear βA peptide 6 (Ile75 replaced by ornithine) (from UniProt P60709 66-81)”, for which, in data set [4], the Km of SETD3-catalysed methylation, MALDI-TOF MS steady-state kinetics (200 nM SETD3, 100 µM SAM, pH 9.0, 37 °C) is 45.2 µM; the kcat of SETD3-catalysed methylation, MALDI-TOF MS steady-state kinetics (200 nM SETD3, 100 µM SAM, pH 9.0, 37 °C) was 221 min^-1; the kcat/Km of SETD3-catalysed methylation, MALDI-TOF MS steady-state kinetics (200 nM SETD3, 100 µM SAM, pH 9.0, 37 °C) amounted to 4.91 µM^-1min^-1.

“TLKYPIEHG[Orn]VTNWDD (also: sidechain bridge or staple (positions not given here)) [compound 7, i, i + 3 lactam-bridged βA peptide (Glu72-Orn75)]”: the “SETD3-catalyzed methylation after 3 h” value at human SETD3 [2] is recorded as 41%.

On to “TLKYPICHGCVTNWDD [compound 1, linear dicysteine βA66-81 control peptide]”, for which, at human SETD3 [2], the “SETD3-catalyzed methylation (conversion) within 1 h” value was “full conversion”. For the same molecule, at human SETD3 [3], the Km amounted to 75.7 ± 20 µM, the kcat was determined as 0.983 ± 0.125 s⁻¹ and the kcat/Km was 13000 M⁻¹ s⁻¹.

Consider “TLKYPICHGCVTNWDD (also: sidechain bridge or staple (positions not given here)) [compound 3, stapled bis-thiol alkylated βA peptide]”, for which, on human SETD3 [2], the “SETD3-catalyzed methylation after 3 h” value amounted to 35%.

Consider “TLKYPILys(N3)HGPraVTNWDD [compound 10, linear click-control with azido-lysine and propargylglycine]”, for which the “SETD3-catalyzed methylation after 3 h (in words)” value on human SETD3 [2] is on record as “full conversion”. Moreover, at human SETD3 [3], the Km is 77.8 ± 14 µM, the catalytic constant (kcat) is 1.72 ± 0.15 s⁻¹ and the kcat/Km was found to be 22000 M⁻¹ s⁻¹.

B1: human SETD3 (Homo sapiens) (protein)
chain: T1 sequence (Q86TU7 1-594)
notes: His6 (N); made in house; host or cells: E. coli BL21(DE3)
B1: in data set [5], the Km is recorded as 25.6 ± 4.9 µM, the kcat was determined as 2.47 ± 0.145 s⁻¹ and the kcat/Km is 96300 M⁻¹ s⁻¹.
